Literature values, collected in US20220047626A1, “COMPOSITION OF A SPRAY FORMULA TO CONTROL MASTITIS IN BOVINES” (priority 2018, published 2022).

conditions: stated in the description, no method given

| viscosity [cP] | SMILES |
| --- | --- |
| 52 | CC(O)CO (stereo not drawn) [propylene glycol] |
| 950 | OCC(O)CO [glycerin] |
| 200 | OC[C@@H](O)[C@@H](O)[C@H](O)[C@@H](O)CO [sorbitol] |
